This is an account of results in patent publication US9346815B2, “5-chloro-2-difluoromethoxyphenyl pyrazolopyrimidine compounds, compositions and methods of use thereof” (Genentech, Inc., priority 2014, dated 2016).

SMILES strings stand for the structures.

Assay [1] has as its target isolated recombinant JAK2 kinase domain (Homo sapiens (Human), UniProt O60674). The experiment in a line: JAK2 enzyme assay (Caliper LabChip, peptide phosphorylation). Format: biochemical. As to conditions: 25 μM ATP.
Assay [2] concerns the target isolated recombinant JAK1 kinase domain (Homo sapiens (Human), UniProt P23458). The experiment in a line: JAK1 enzyme assay (Caliper LabChip, peptide phosphorylation). In kind it is biochemical. As to conditions: isolated recombinant JAK1 kinase domain, 25 μM ATP.
For assay [3], the system named is JAK1-dependent STAT6 phosphorylation downstream of IL-13 stimulation in TF-1 human erythroleukemia cells. The experiment in a line: JAK1 pathway assay in TF-1 cells (IL-13-pSTAT6, MSD). In kind it is cell-based. To be noted: Homo sapiens, TF-1, TF-1 cells, read-out: IL13-pSTAT6 EC50_TF-1. A digest of the protocol: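 BEAS-2B: complete growth medium, compound 1 hr at 37° C. TF-1: GM-CSF-starved overnight, serum-free OptiMEM, compound 30 min.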

Sequence of isolated recombinant JAK2 kinase domain (O60674 849-1124): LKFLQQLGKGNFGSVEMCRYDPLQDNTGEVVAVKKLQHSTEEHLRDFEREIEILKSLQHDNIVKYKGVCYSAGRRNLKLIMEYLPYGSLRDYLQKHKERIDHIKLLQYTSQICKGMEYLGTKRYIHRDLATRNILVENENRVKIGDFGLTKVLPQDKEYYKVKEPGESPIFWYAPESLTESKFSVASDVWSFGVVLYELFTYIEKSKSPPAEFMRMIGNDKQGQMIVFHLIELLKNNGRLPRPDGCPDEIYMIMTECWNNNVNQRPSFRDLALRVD
Sequence of isolated recombinant JAK1 kinase domain (P23458 875-1153): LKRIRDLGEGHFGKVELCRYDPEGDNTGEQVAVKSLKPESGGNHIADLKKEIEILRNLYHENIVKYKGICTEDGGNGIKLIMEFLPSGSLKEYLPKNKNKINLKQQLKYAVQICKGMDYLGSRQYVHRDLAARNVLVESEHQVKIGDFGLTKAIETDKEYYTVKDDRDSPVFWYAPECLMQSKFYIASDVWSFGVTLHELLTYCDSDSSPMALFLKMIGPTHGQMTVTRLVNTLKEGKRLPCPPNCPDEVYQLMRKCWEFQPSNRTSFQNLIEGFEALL

For the compound `O=C(Nc1cn(CC(=O)N2CCC(NCCc3ccccc3)CC2)nc1-c1cc(Cl)ccc1OC(F)F)c1cnn2cccnc12` [Example 89, N-[3-[5-chloro-2-(difluoromethoxy)phenyl]-1-[2-oxo-2-[4-(2-phenylethylamino)-1-piperidyl]ethyl]pyrazol-4-yl]pyrazolo[1,5-a]pyrimidine-3-carboxamide], the Ki (as a rule, the dissociation constant of the complex between target and ligand, obtained from inhibition or displacement) in assay [1] stood at 1.45 nM; in assay [2], 0.88 nM. In addition, the EC50 in assay [3] stood at 22.7 nM.

On to `CN(CCc1ccc(O)cc1)C1CCN(C(=O)Cn2cc(NC(=O)c3cnn4cccnc34)c(-c3cc(Cl)ccc3OC(F)F)n2)CC1` [Example 90, N-[3-[5-chloro-2-(difluoromethoxy)phenyl]-1-[2-[4-[2-(4-hydroxyphenyl)ethyl-methyl-amino]-1-piperidyl]-2-oxo-ethyl]pyrazol-4-yl]pyrazolo[1,5-a]pyrimidine-3-carboxamide], for which the inhibitory constant (Ki) in assay [1] amounted to 1.31 nM; in assay [2], 0.95 nM. Further, the EC50 in assay [3] is 23.3 nM.

For `O=C(Nc1cn(CC(=O)N2CCC(NCCc3ccc(O)cc3)CC2)nc1-c1cc(Cl)ccc1OC(F)F)c1cnn2cccnc12` [Example 91, N-[3-[5-chloro-2-(difluoromethoxy)phenyl]-1-[2-[4-[2-(4-hydroxyphenyl)ethyl-amino]-1-piperidyl]-2-oxo-ethyl]pyrazol-4-yl]pyrazolo[1,5-a]pyrimidine-3-carboxamide], the inhibition constant (Ki) in assay [1] worked out at 1.15 nM; in assay [2], 0.75 nM. In addition, the EC50 in assay [3] is 149 nM.

On to `O=C(Nc1cn(CC(=O)N2CCC(NCCc3ccc(Cl)cc3)CC2)nc1-c1cc(Cl)ccc1OC(F)F)c1cnn2cccnc12` [Example 92, N-[3-[5-chloro-2-(difluoromethoxy)phenyl]-1-[2-[4-[2-(4-chlorophenyl)ethylamino]-1-piperidyl]-2-oxo-ethyl]pyrazol-4-yl]pyrazolo[1,5-a]pyrimidine-3-carboxamide], for which the values for the Ki in assay [1] and in assay [2] were 2.03 nM and 0.92 nM, respectively. The EC50 in assay [3] turned out to be 55.6 nM.

With `COc1ccc(CCN(C)C2CCN(C(=O)Cn3cc(NC(=O)c4cnn5cccnc45)c(-c4cc(Cl)ccc4OC(F)F)n3)CC2)cc1` [Example 95, N-[3-[5-chloro-2-(difluoromethoxy)phenyl]-1-[2-[4-[2-(4-methoxyphenyl)ethyl-methyl-amino]-1-piperidyl]-2-oxo-ethyl]pyrazol-4-yl]pyrazolo[1,5-a]pyrimidine-3-carboxamide], the Ki in assay [1] was determined as 2.6 nM; in assay [2], 0.8 nM. Further, the EC50 in assay [3] came to 17.3 nM.

Regarding `CN(CC1(C)COC1)C1CCN(C(=O)Cn2cc(NC(=O)c3cnn4cccnc34)c(-c3cc(Cl)ccc3OC(F)F)n2)CC1` [Example 96, N-[3-[5-chloro-2-(difluoromethoxy)phenyl]-1-[2-[4-[methyl-[(3-methyloxetan-3-yl)methyl]amino]-1-piperidyl]-2-oxo-ethyl]pyrazol-4-yl]pyrazolo[1,5-a]pyrimidine-3-carboxamide], the inhibitory constant (Ki) in assay [1] turned out to be 1.4 nM; in assay [2], 0.63 nM. Besides, the EC50 in assay [3] turned out to be 4.1 nM.

Turning to `CN(CCc1ccc(C(F)(F)F)cc1)C1CCN(C(=O)Cn2cc(NC(=O)c3cnn4cccnc34)c(-c3cc(Cl)ccc3OC(F)F)n2)CC1` [Example 97, N-[3-[5-chloro-2-(difluoromethoxy)phenyl]-1-[2-[4-[methyl-[2-[4-(trifluoromethyl)phenyl]ethyl]amino]-1-piperidyl]-2-oxo-ethyl]pyrazol-4-yl]pyrazolo[1,5-a]pyrimidine-3-carboxamide], the inhibitory constant (Ki) in assay [1] amounted to 1.97 nM; in assay [2], 1.16 nM. The EC50 in assay [3] was determined as 187 nM.

As to `CN(CCOc1ccccc1)C1CCN(C(=O)Cn2cc(NC(=O)c3cnn4cccnc34)c(-c3cc(Cl)ccc3OC(F)F)n2)CC1` [Example 100, N-[3-[5-chloro-2-(difluoromethoxy)phenyl]-1-[2-[4-[methyl(2-phenoxyethyl)amino]-1-piperidyl]-2-oxo-ethyl]pyrazol-4-yl]pyrazolo[1,5-a]pyrimidine-3-carboxamide], the inhibition constant (Ki) in assay [1] turned out to be 2.01 nM; in assay [2], 0.84 nM. In addition, the EC50 in assay [3] was determined as 5.4 nM.

Turning to `CN(CCC1CCCCC1)C1CCN(C(=O)Cn2cc(NC(=O)c3cnn4cccnc34)c(-c3cc(Cl)ccc3OC(F)F)n2)CC1` [Example 101, N-[3-[5-chloro-2-(difluoromethoxy)phenyl]-1-[2-[4-[2-cyclohexyl-ethyl(methyl)amino]-1-piperidyl]-2-oxo-ethyl]pyrazol-4-yl]pyrazolo[1,5-a]pyrimidine-3-carboxamide], the Ki in assay [1] was found to be 1.77 nM; in assay [2] it was 0.67 nM. In assay [3], the EC50 came out at 16.5 nM.

For the compound `O=C(Nc1cn(CC(=O)N2CCC(N(CCc3ccccc3)CC(F)(F)F)CC2)nc1-c1cc(Cl)ccc1OC(F)F)c1cnn2cccnc12` [Example 103, N-[3-[5-chloro-2-(difluoromethoxy)phenyl]-1-[2-oxo-2-[4-[2-phenylethyl(2,2,2-trifluoroethyl)amino]-1-piperidyl]ethyl]pyrazol-4-yl]pyrazolo[1,5-a]pyrimidine-3-carboxamide], the results for the inhibition constant Ki in assay [1] and in assay [2] were 7.95 nM and 3.98 nM, respectively. Also, the EC50 in assay [3] stood at 265 nM.

With `CN(CCOc1ccc(Br)cc1)C1CCN(C(=O)Cn2cc(NC(=O)c3cnn4cccnc34)c(-c3cc(Cl)ccc3OC(F)F)n2)CC1` [Example 104, N-[1-[2-[4-[2-(4-bromophenoxy)ethyl-methyl-amino]-1-piperidyl]-2-oxo-ethyl]-3-[5-chloro-2-(difluoromethoxy)phenyl]pyrazol-4-yl]pyrazolo[1,5-a]pyrimidine-3-carboxamide], the inhibition constant Ki was 2.11 nM in assay [1] and 0.93 nM in assay [2]. In addition, the EC50 in assay [3] was 20.2 nM.

As for `CN(CCOc1ccccc1Br)C1CCN(C(=O)Cn2cc(NC(=O)c3cnn4cccnc34)c(-c3cc(Cl)ccc3OC(F)F)n2)CC1` [Example 105, N-[1-[2-[4-[2-(2-bromophenoxy)ethyl-methyl-amino]-1-piperidyl]-2-oxo-ethyl]-3-[5-chloro-2-(difluoromethoxy)phenyl]pyrazol-4-yl]pyrazolo[1,5-a]pyrimidine-3-carboxamide], the Ki in assay [1] is 3.17 nM; in assay [2] it was 1.45 nM. Also, in assay [3], the EC50 is 50 nM.

As to `CN(CCOc1ccccc1Cl)C1CCN(C(=O)Cn2cc(NC(=O)c3cnn4cccnc34)c(-c3cc(Cl)ccc3OC(F)F)n2)CC1` [Example 106, N-[3-[5-chloro-2-(difluoromethoxy)phenyl]-1-[2-[4-[2-(2-chlorophenoxy)ethyl-methyl-amino]-1-piperidyl]-2-oxo-ethyl]pyrazol-4-yl]pyrazolo[1,5-a]pyrimidine-3-carboxamide], the inhibition constant Ki in assay [1] was 2.29 nM; in assay [2], 1.09 nM. Besides, in assay [3], the EC50 amounted to 15.5 nM.

As for `CN(CCOc1ccc(Cl)cc1)C1CCN(C(=O)Cn2cc(NC(=O)c3cnn4cccnc34)c(-c3cc(Cl)ccc3OC(F)F)n2)CC1` [Example 107, N-[3-[5-chloro-2-(difluoromethoxy)phenyl]-1-[2-[4-[2-(4-chlorophenoxy)ethyl-methyl-amino]-1-piperidyl]-2-oxo-ethyl]pyrazol-4-yl]pyrazolo[1,5-a]pyrimidine-3-carboxamide], the Ki in assay [1] was 2.49 nM; in assay [2], 0.97 nM. For the same compound, the EC50 in assay [3] was determined as 17.6 nM.

Regarding `CCCCN(CCOc1ccc(C)cc1)C1CCN(C(=O)Cn2cc(NC(=O)c3cnn4cccnc34)c(-c3cc(Cl)ccc3OC(F)F)n2)CC1` [Example 108, N-[1-[2-[4-[butyl-[2-(4-methylphenoxy)ethyl]amino]-1-piperidyl]-2-oxo-ethyl]-3-[5-chloro-2-(difluoromethoxy)phenyl]pyrazol-4-yl]pyrazolo[1,5-a]pyrimidine-3-carboxamide], the figures for the inhibitory constant (Ki) in assay [1] and in assay [2] were 3.66 nM and 2.47 nM, respectively. In addition, the EC50 in assay [3] was 43.1 nM.

`C=CCN(CCOc1ccc(C)cc1)C1CCN(C(=O)Cn2cc(NC(=O)c3cnn4cccnc34)c(-c3cc(Cl)ccc3OC(F)F)n2)CC1` [Example 109, N-[1-[2-[4-[allyl-[2-(4-methylphenoxy)ethyl]amino]-1-piperidyl]-2-oxo-ethyl]-3-[5-chloro-2-(difluoromethoxy)phenyl]pyrazol-4-yl]pyrazolo[1,5-a]pyrimidine-3-carboxamide]: the Ki was 7.3 nM in assay [1] and 3.22 nM in assay [2]. Also, the EC50 in assay [3] was 42.9 nM.

With `O=C(Nc1cn(CC(=O)N2CCC(CN3CCC(F)(F)CC3)(c3ccccc3)CC2)nc1-c1cc(Cl)ccc1OC(F)F)c1cnn2cccnc12` [Example 111, N-[3-[5-chloro-2-(difluoromethoxy)phenyl]-1-[2-[4-[(4,4-difluoro-1-piperidyl)methyl]-4-phenyl-1-piperidyl]-2-oxo-ethyl]pyrazol-4-yl]pyrazolo[1,5-a]pyrimidine-3-carboxamide], the Ki in assay [1] was found to be 10.6 nM; in assay [2], 3.1 nM. Moreover, the EC50 in assay [3] came to 203 nM.

Regarding `CN(CC1Oc2ccccc2O1)C1CCN(C(=O)Cn2cc(NC(=O)c3cnn4cccnc34)c(-c3cc(Cl)ccc3OC(F)F)n2)CC1` [Example 112, N-[1-[2-[4-[1,3-benzodioxol-2-ylmethyl(methyl)amino]-1-piperidyl]-2-oxo-ethyl]-3-[5-chloro-2-(difluoromethoxy)phenyl]pyrazol-4-yl]pyrazolo[1,5-a]pyrimidine-3-carboxamide], the inhibitory constant (Ki) was 1.01 nM in assay [1] and 0.45 nM in assay [2]. In addition, the EC50 in assay [3] was found to be 96.3 nM.

As for `CN(Cc1cccc(Oc2ccccc2)c1)C1CCN(C(=O)Cn2cc(NC(=O)c3cnn4cccnc34)c(-c3cc(Cl)ccc3OC(F)F)n2)CC1` [Example 113, N-[3-[5-chloro-2-(difluoromethoxy)phenyl]-1-[2-[4-[methyl-[(3-phenoxyphenyl)methyl]amino]-1-piperidyl]-2-oxo-ethyl]pyrazol-4-yl]pyrazolo[1,5-a]pyrimidine-3-carboxamide], the results for the Ki in assay [1] and in assay [2] were 2.15 nM and 1.19 nM, respectively. Further, the EC50 in assay [3] amounted to 30.6 nM.
